# According to ChEMBL document CHEMBL1153532, “Design and evaluation of novel biphenyl sulfonamide derivatives with potent histamine H(3) receptor inverse agonist activity” (J Med Chem, 2009):
# Calls of active or inactive are those of the source. The calls are words filed in the database; no cut-off is given here.
# Key:
# hERG (KCNH2) = hERG (KCNH2) (Homo sapiens, UniProt Q12809); assay: Inhibition of human ERG at 3 uM by patch clamp assay
# Histamine H3 receptor = Histamine H3 receptor (Rattus norvegicus, UniProt Q9QYN8); assay: Displacement of N-[3H]methylhistamine from histamine H3 receptor in rat cortex membrane; assay type: cell membranes
# Sequence of Histamine H3 receptor (Q9QYN8 whole entry): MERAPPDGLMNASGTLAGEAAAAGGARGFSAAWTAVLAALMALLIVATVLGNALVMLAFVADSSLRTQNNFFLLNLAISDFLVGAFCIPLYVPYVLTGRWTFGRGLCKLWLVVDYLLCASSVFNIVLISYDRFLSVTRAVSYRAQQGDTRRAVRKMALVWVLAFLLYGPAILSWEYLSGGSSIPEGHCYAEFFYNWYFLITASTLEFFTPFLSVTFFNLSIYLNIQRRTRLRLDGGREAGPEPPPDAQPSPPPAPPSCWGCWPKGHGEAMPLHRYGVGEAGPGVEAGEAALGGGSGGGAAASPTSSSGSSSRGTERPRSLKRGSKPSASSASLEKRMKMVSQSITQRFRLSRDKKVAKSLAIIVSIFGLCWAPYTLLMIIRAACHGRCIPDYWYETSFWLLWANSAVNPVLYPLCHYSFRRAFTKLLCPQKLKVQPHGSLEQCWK
# [1] = Plasma concentration in Sprague-Dawley rat at 10 mg/kg, po after 0.5 hrs; assay type: ADME, organism-based; design: dose 10 mg/kg, route oral
# [2] = target: Histamine H4 receptor (Homo sapiens) (UniProt Q9H3N8); assay: Binding affinity to human histamine H4 receptor at 1 uM
# Sequence of Histamine H4 receptor (Homo sapiens) (Q9H3N8 whole entry): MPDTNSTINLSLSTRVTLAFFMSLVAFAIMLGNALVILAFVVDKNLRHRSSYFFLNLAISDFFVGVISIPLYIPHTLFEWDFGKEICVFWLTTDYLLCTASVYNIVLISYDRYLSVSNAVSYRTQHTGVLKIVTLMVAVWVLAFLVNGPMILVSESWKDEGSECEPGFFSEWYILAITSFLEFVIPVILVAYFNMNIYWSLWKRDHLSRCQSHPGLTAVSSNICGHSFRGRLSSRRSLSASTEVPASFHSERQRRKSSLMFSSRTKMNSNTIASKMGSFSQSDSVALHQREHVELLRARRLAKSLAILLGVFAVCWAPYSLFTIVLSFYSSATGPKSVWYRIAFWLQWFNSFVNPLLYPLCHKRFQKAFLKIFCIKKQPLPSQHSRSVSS
# Rattus norvegicus [3] = assay: Inhibition of (R)-alpha-methyl histamine induced drinking in Sprague-Dawley rat dipsogenia model at 3 mg/kg, po administered 0.5 hrs before (R)-alpha-methyl histamine challenge; assay type: functional
# [4] = target: Histamine H1 receptor (Homo sapiens) (UniProt P35367); assay: Binding affinity to human histamine H1 receptor at 1 uM
# Sequence of Histamine H1 receptor (Homo sapiens) (P35367 whole entry): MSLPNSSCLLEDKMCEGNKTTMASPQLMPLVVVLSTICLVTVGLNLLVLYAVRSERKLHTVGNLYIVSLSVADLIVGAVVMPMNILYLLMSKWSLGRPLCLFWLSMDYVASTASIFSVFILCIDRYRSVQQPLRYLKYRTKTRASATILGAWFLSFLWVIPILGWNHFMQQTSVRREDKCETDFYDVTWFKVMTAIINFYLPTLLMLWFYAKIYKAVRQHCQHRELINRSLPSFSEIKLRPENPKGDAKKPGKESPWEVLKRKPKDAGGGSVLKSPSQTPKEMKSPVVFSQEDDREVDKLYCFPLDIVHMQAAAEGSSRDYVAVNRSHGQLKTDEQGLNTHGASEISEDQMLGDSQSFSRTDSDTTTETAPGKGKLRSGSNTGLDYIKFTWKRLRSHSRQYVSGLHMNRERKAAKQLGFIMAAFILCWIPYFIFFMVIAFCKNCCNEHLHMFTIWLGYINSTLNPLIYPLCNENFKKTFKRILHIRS
# [5] = Half life in Sprague-Dawley rat at 10 mg/kg, po up to 21 hrs; assay type: ADME, organism-based; design: dose 10 mg/kg, route oral; conditions: in vivo
# [6] = Oral bioavailability in Sprague-Dawley rat at 10 mg/kg, po up to 21 hrs; assay type: ADME, organism-based; conditions: in vivo
# [7] = Drug level in Sprague-Dawley rat brain at 10 mg/kg, po after 0.5 hrs; assay type: ADME, organism-based; design: dose 10 mg/kg, route oral; conditions: read-out: Drug uptake
# in vivo = conditions: Sprague-Dawley, rat, brain/plasma, po, 10 mg/kg
# [8] = Tmax in Sprague-Dawley rat at 10 mg/kg, po up to 21 hrs; assay type: ADME, organism-based; design: dose 10 mg/kg, route oral; conditions: in vivo
# [9] = target: Histamine H2 receptor (Homo sapiens) (UniProt P25021); assay: Binding affinity to human histamine H2 receptor at 1 uM
# Sequence of Histamine H2 receptor (Homo sapiens) (P25021 whole entry): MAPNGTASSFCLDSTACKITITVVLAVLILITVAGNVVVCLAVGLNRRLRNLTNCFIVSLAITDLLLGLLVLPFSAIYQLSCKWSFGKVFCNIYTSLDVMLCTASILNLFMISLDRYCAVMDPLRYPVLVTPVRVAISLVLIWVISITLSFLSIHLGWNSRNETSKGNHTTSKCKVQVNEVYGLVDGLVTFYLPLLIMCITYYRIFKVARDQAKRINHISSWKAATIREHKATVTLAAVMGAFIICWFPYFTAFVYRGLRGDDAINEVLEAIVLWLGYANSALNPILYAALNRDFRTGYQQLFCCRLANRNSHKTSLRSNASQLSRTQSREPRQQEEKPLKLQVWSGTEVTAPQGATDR
# Rattus norvegicus [10] = assay: Inhibition of (R)-alpha-methyl histamine induced drinking in Sprague-Dawley rat dipsogenia model at 1 mg/kg, po administered 0.5 hrs before (R)-alpha-methyl histamine challenge; assay type: functional
# Rattus norvegicus [11] = assay: Increase in wakefulness in Sprague-Dawley rat at 1 mg/kg, po administered 4 hrs after lights out condition measured over 5 hrs period by polysomnographic method; assay type: functional
# Rattus norvegicus [12] = assay: Increase in wakefulness in Sprague-Dawley rat at 0.1 mg/kg, po administered 4 hrs after lights out condition measured over 5 hrs period by polysomnographic method; assay type: functional, organism-based; design: dose 0.1 mg/kg
# Brain = assay: Drug level in Sprague-Dawley rat brain assessed as 4'-[2-((R)-2-Methyl-pyrrolidin-1-yl)-ethyl]-biphenyl-4-sulfonic Acid Amide level at 1 mg/kg, po after 3.5 hrs; assay type: ADME, organism-based; design: dose 1 mg/kg, route oral; conditions: in vivo
# Rattus norvegicus [13] = assay: Inhibition of (R)-alpha-methyl histamine induced drinking in Sprague-Dawley rat dipsogenia model at 0.3 mg/kg, po administered 0.5 hrs before (R)-alpha-methyl histamine challenge; assay type: functional
# Sequence of hERG (KCNH2) (Q12809 whole entry): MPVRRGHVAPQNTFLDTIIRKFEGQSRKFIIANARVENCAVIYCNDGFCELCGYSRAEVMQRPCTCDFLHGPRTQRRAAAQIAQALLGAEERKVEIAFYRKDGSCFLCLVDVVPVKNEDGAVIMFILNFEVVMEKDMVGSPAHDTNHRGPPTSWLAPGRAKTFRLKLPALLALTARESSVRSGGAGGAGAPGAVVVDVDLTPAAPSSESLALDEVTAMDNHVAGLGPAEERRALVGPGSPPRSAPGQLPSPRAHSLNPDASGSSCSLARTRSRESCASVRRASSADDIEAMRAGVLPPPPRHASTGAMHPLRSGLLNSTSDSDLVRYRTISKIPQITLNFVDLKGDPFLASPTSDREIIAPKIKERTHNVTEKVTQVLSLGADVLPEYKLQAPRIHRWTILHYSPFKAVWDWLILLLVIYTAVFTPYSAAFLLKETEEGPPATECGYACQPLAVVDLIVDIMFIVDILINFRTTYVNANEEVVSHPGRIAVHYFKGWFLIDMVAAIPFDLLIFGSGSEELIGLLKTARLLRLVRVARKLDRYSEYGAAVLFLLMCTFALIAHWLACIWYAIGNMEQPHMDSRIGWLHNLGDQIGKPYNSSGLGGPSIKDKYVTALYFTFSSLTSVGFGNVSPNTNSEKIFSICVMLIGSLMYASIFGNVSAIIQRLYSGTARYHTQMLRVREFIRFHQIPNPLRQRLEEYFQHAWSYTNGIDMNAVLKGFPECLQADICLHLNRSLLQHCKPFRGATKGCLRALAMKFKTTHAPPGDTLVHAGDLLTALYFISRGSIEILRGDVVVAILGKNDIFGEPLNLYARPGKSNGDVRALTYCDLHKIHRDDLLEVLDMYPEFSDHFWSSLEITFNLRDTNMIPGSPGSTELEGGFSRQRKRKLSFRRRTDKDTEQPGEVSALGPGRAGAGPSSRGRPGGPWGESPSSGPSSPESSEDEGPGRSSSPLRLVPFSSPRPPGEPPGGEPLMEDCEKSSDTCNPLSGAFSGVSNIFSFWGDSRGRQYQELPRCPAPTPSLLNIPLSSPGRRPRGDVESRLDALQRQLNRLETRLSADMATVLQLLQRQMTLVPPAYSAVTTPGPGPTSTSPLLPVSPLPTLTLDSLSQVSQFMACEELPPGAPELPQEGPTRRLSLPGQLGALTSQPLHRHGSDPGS
compound,measurement,setting,value
C[C@@H]1CCCN1CCc1ccc(-c2ccc(S(=O)(=O)NCc3ccncc3)cc2)cc1,inhibition at 3 µM,hERG (KCNH2),27%
same,Ki,Histamine H3 receptor; read-out: pKi (converted),0.182 nM
C[C@@H]1CCCN1CCc1ccc(-c2ccc(S(=O)(=O)NCc3ccccc3)cc2)cc1,inhibition at 3 µM,hERG (KCNH2),84%
C[C@@H]1CCCN1CCc1ccc(-c2ccc(S(=O)(=O)N3CCS(=O)(=O)CC3)cc2)cc1,Ki,Histamine H3 receptor; read-out: pKi (converted),0.933 nM
CCN(CC)S(=O)(=O)c1ccc(-c2ccc(CCN3CCC[C@H]3C)cc2)cc1,Ki,Histamine H3 receptor; read-out: pKi (converted),1.41 nM
C[C@@H]1CCCN1CCc1ccc(-c2ccc(S(=O)(=O)N3CC[C@H](O)C3)cc2)cc1,Ki,Histamine H3 receptor; read-out: pKi (converted),2.45 nM
C[C@@H]1CCCN1CCc1ccc(-c2ccc(S(=O)(=O)NC3CCOCC3)cc2)cc1,concentration at 0.5 h,[1],440 ng/mL
same,Activity,[2],< 10%
same,inhibition in vivo at 3 mg/kg,Rattus norvegicus [3],85.1%
same,Activity,[4],< 10%
same,half-life,[5],2.3 h
same,bioavailability,[6],62%
same,concentration at 0.5 h,[7],140 ng/mL
same,Kp at 0.5 h,in vivo,0.32
same,Tmax,[8],0.8 h
same,Ki,Histamine H3 receptor; read-out: Ki,2 nM
same,Activity,[9],< 10%
same,inhibition in vivo at 1 mg/kg,Rattus norvegicus [10],77.5%
C[C@@H]1CCCN1CCc1ccc(-c2cccc(S(=O)(=O)N3CCCCC3)c2)cc1,Ki,Histamine H3 receptor; read-out: pKi (converted),12.6 nM
CCNS(=O)(=O)c1cccc(-c2ccc(CCN3CCC[C@H]3C)cc2)c1,Ki,Histamine H3 receptor; read-out: pKi (converted),11 nM
C[C@@H]1CCCN1CCc1ccc(-c2ccc(S(N)(=O)=O)cc2)cc1,concentration at 0.5 h,[7],800 ng/g
C[C@@H]1CCCN1CCc1ccc(-c2ccc(S(=O)(=O)NCC3CC3)cc2)cc1,inhibition at 3 µM,hERG (KCNH2),54%
C[C@@H]1CCCN1CCc1ccc(-c2ccc(S(=O)(=O)NC(C)(C)CO)cc2)cc1,inhibition at 3 µM,hERG (KCNH2),37%
CC(C)NS(=O)(=O)c1cccc(-c2ccc(CCN3CCC[C@H]3C)cc2)c1,Ki,Histamine H3 receptor; read-out: pKi (converted),7.94 nM
COCCNS(=O)(=O)c1ccc(-c2ccc(CCN3CCC[C@H]3C)cc2)cc1,concentration at 0.5 h,[1],11200 ng/mL
same,inhibition in vivo at 3 mg/kg,Rattus norvegicus [3],96.7%
same,inhibition at 3 µM,hERG (KCNH2),29%
same,half-life,[5],2.6 h
same,bioavailability,[6],22%
same,concentration at 0.5 h,[7],8700 ng/mL
same,Kp at 0.5 h,in vivo,0.78
same,Tmax,[8],0.2 h
same,Ki,Histamine H3 receptor; read-out: Ki,3 nM
same,inhibition in vivo at 1 mg/kg,Rattus norvegicus [10],40.7%
CCNS(=O)(=O)c1ccc(-c2ccc(CCN3CCC[C@H]3C)cc2)cc1,concentration at 0.5 h,[1],1600 ng/mL
same,Activity,[2],< 10%
same,inhibition in vivo at 3 mg/kg,Rattus norvegicus [3],69.6%
same,Activity,[4],< 10%
same,Activity,Rattus norvegicus [11],40%
same,Activity,Rattus norvegicus [12],inactive
same,Drug uptake,Brain,246 ng/mL
same,half-life,[5],1.8 h
same,bioavailability,[6],93%
same,concentration at 0.5 h,[7],3600 ng/mL
same,Kp at 0.5 h,in vivo,2.3
same,Tmax,[8],0.5 h
same,Activity,[9],< 10%
same,inhibition in vivo at 1 mg/kg,Rattus norvegicus [10],77.6%
C[C@@H]1CCCN1CCc1ccc(-c2ccc(S(=O)(=O)N3CCOCC3)cc2)cc1,concentration at 0.5 h,[1],160 ng/mL
same,Activity,[2],< 10%
same,Activity,[4],< 10%
same,inhibition in vivo at 0.3 mg/kg,Rattus norvegicus [13],34.1%
same,half-life,[5],1.2 h
same,bioavailability,[6],12%
same,concentration at 0.5 h,[7],320 ng/mL
same,Tmax,[8],1.7 h
same,Ki,Histamine H3 receptor; read-out: Ki,2 nM
same,Activity,[9],< 10%
same,inhibition in vivo at 1 mg/kg,Rattus norvegicus [10],99.8%
C[C@@H]1CCCN1CCc1ccc(-c2ccc(S(=O)(=O)NC3CCC3)cc2)cc1,inhibition at 3 µM,hERG (KCNH2),79%
C[C@@H]1CCCN1CCc1ccc(-c2ccc(S(=O)(=O)N3Cc4ccccc4C3)cc2)cc1,Ki,Histamine H3 receptor; read-out: pKi (converted),0.501 nM
CCN(CC)S(=O)(=O)c1cccc(-c2ccc(CCN3CCC[C@H]3C)cc2)c1,Ki,Histamine H3 receptor; read-out: pKi (converted),16.2 nM
